Strand notation (5' to 3'): a small letter for the sugar, then the base; units joined by * are phosphorothioate-linked, units joined directly phosphodiester-linked; [ ] holds rarer units or linkages, { } end groups; capitals alone tell only the bases. k = constrained ethyl (cEt); [5mC] = 5-methylcytosine; d = 2'-deoxy (DNA)
System: Yap1 mRNA
Assay: Antisense inhibition of human Yap1 in A-431 cells by cEt gapmers, single dose (Example 3, RTS36584)
Assay type: cell-based
Summary of the method: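 A-431 cells (5,000/well) took up the 3-10-3 cEt gapmers by free uptake at 2,000 nM for about 48 h. Yap1 mRNA was measured by RT-qPCR with primer probe set RTS36584, normalized to RiboGreen total RNA, and given as % of untreated control.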

[1] = Table 10, A-431 cells, 5,000 cells per well, free uptake, 2,000 nM oligonucleotide, approx. 48 hours, primer probe set RTS36584, Yap1 mRNA normalized to RIBOGREEN, percent of untreated control
[2] = Table 8, A-431 cells, 5,000 cells per well, free uptake, 2,000 nM, approximately 48 hours, RTS36584, normalized to RIBOGREEN, Yap1 mRNA relative to untreated control cells
[3] = Table 13, A-431 cells, 5,000 cells per well, free uptake, 2,000 nM modified oligonucleotide, approx. 48 hours, RTS36584, normalized to RIBOGREEN, Yap1 mRNA relative to untreated control cells
[4] = Table 9, A-431 cells, 5,000 cells per well, free uptake, 2,000 nM, approximately 48 hours, RTS36584, normalized to RIBOGREEN, Yap1 mRNA relative to untreated control cells
[5] = Table 12, A-431 cells, 5,000 cells per well, free uptake, 2,000 nM modified oligonucleotide, approx. 48 hours, RTS36584, normalized to RIBOGREEN, Yap1 mRNA relative to untreated control cells
[6] = Table 27, Yap1 mRNA by 3-10-3 cEt gapmers targeting SEQ ID NO.: 1, and 2, percent of untreated control
[7] = Table 35, Yap1 mRNA as percent of untreated control, 3-10-3 cEt gapmers targeting SEQ ID NO: 1 and 2, single dose
[8] = Table 28, Yap1 mRNA as percent of untreated control, 3-10-3 cEt gapmers targeting SEQ ID NO.: 1, and 2
[9] = Table 11, A-431 cells, 5,000 cells per well, free uptake, 2,000 nM oligonucleotide, approx. 48 hours, primer probe set RTS36584, Yap1 mRNA normalized to RIBOGREEN, percent of untreated control
[10] = Table 26, Yap1 mRNA by 3-10-3 cEt gapmers targeting SEQ ID NO.: 1, and 2, percent of untreated control
[11] = Table 34, Yap1 mRNA as percent of untreated control, 3-10-3 cEt gapmers targeting SEQ ID NO: 1 and 2, single dose

958642 (antisense kG*kA*k[5mC]*dA*dT*d[5mC]*dA*dA*dT*dT*dT*d[5mC]*dA*kG*kT*k[5mC]) [Compound 958642]
YAP1 (% UTC) [1]: 91 % UTC

958357 (antisense k[5mC]*kG*kG*d[5mC]*dT*dT*dG*dA*dA*dG*dA*dA*dG*kG*kA*kG) [Compound 958357]
YAP1 (% UTC) [2]: 12 % UTC

958615 (antisense kT*kG*kG*dT*d[5mC]*dT*dT*dG*dT*dT*d[5mC]*dT*dT*kA*kT*kG) [Compound 958615]
YAP1 (% UTC) [3]: 3 % UTC

958611 (antisense kG*kA*kG*d[5mC]*dA*dT*dG*d[5mC]*dT*d[5mC]*dT*dT*dA*k[5mC]*kA*kT) [Compound 958611]
YAP1 (% UTC) [4]: 92 % UTC

958544 (kG*k[5mC]*kT*dA*dA*dA*dT*dT*d[5mC]*dA*dA*d[5mC]*dT*kA*k[5mC]*k[5mC]; antisense) [Compound 958544]
YAP1 (% UTC) [5]: 8 % UTC

1075661 (antisense kG*kA*kA*dT*dA*dG*dG*dA*dT*dA*d[5mC]*dA*dA*kG*k[5mC]*kA) [compound 1075661]
YAP1 (% UTC) [6]: 74 % UTC

1075887 (antisense kT*kA*kT*dT*dA*d[5mC]*dT*dT*dG*dA*dT*dT*dG*kA*k[5mC]*kA) [compound 1075887]
YAP1 (% UTC) (Table 29, Yap1 mRNA as percent of untreated control, 3-10-3 cEt gapmers targeting SEQ ID NO.: 1, and 2): 10 % UTC

958477 (antisense kA*kT*kT*dT*d[5mC]*d[5mC]*dG*dG*dT*dG*d[5mC]*dA*dT*kG*kT*kG) [Compound 958477]
YAP1 (% UTC) [1]: 2 % UTC

958350 (kT*k[5mC]*k[5mC]*dG*dA*dG*dT*d[5mC]*d[5mC]*d[5mC]*d[5mC]*dG*d[5mC]*kG*kG*kA; antisense) [Compound 958350]
YAP1 (% UTC) [2]: 106 % UTC

1074357 (antisense k[5mC]*kG*kA*dG*dG*dG*dA*d[5mC]*dA*d[5mC]*dT*dG*dT*kA*kG*k[5mC]) [compound 1074357]
YAP1 (% UTC) [7]: 12 % UTC

958692 (antisense kG*kG*k[5mC]*dT*dA*dG*dA*dG*dG*d[5mC]*d[5mC]*dG*dG*kG*kT*kG) [Compound 958692]
YAP1 (% UTC) [1]: 105 % UTC

1076398 (antisense k[5mC]*kT*kT*dG*dA*dA*dG*dG*dG*d[5mC]*dT*dA*dT*kG*kG*kA) [compound 1076398]
YAP1 (% UTC) [8]: 62 % UTC

1074829 (kG*kG*kA*dT*dA*dA*dA*dA*dT*d[5mC]*d[5mC]*dA*d[5mC]*k[5mC]*kT*kG; antisense) [compound 1074829]
YAP1 (% UTC) [6]: 92 % UTC

958648 (kG*kA*kA*dT*dA*d[5mC]*dT*dG*dA*dG*dT*d[5mC]*dA*kG*kG*kA; antisense) [Compound 958648]
YAP1 (% UTC) [9]: 7 % UTC

1076076 (kT*kA*kT*d[5mC]*dA*dA*dT*dA*d[5mC]*dT*dT*dT*dA*kG*kT*k[5mC]; antisense) [compound 1076076]
YAP1 (% UTC) [10]: 57 % UTC

1074956 (antisense kA*k[5mC]*k[5mC]*d[5mC]*dG*dG*dG*dT*dT*dT*dT*dT*dG*kT*k[5mC]*kA) [compound 1074956]
YAP1 (% UTC) [10]: 104 % UTC

958504 (kA*kT*k[5mC]*dG*dA*dG*dA*dT*dT*dT*dA*dA*dA*kT*kA*kA; antisense) [Compound 958504]
YAP1 (% UTC) [5]: 63 % UTC

958361 (antisense kG*k[5mC]*kT*d[5mC]*dG*dA*dA*d[5mC]*dA*dT*dG*d[5mC]*dT*kG*kT*kG) [Compound 958361]
YAP1 (% UTC) [2]: 8 % UTC

1075470 (antisense kG*k[5mC]*k[5mC]*dA*dA*dT*dA*dA*dG*dT*dT*dA*dT*k[5mC]*kA*kA) [compound 1075470]
YAP1 (% UTC) [8]: 50 % UTC

1075669 (antisense kA*kA*kA*dT*dT*dA*dT*dT*dG*dG*dT*dG*dA*k[5mC]*kA*k[5mC]) [compound 1075669]
YAP1 (% UTC) [7]: 70 % UTC

958675 (kT*k[5mC]*k[5mC]*d[5mC]*dT*dA*dT*d[5mC]*dA*dG*d[5mC]*dT*dG*kG*kG*k[5mC]; antisense) [Compound 958675]
YAP1 (% UTC) [3]: 112 % UTC

1076213 (kT*k[5mC]*kT*d[5mC]*dA*dA*dG*dG*dA*dA*dT*dT*dG*k[5mC]*k[5mC]*kT; antisense) [compound 1076213]
YAP1 (% UTC) [7]: 27 % UTC

1075892 (antisense k[5mC]*kA*k[5mC]*d[5mC]*dA*dA*dT*dA*d[5mC]*d[5mC]*dA*dA*dA*kG*kT*k[5mC]) [compound 1075892]
YAP1 (% UTC) [11]: 54 % UTC

1075917 (antisense kA*kG*k[5mC]*dA*dA*dA*dA*dA*dG*dT*dG*dA*dT*kA*kT*kG) [compound 1075917]
YAP1 (% UTC) [6]: 55 % UTC

1076173 (k[5mC]*kA*kA*dT*dA*dT*dA*dT*d[5mC]*d[5mC]*dT*dG*dA*kG*kA*kT; antisense) [compound 1076173]
YAP1 (% UTC) [6]: 91 % UTC

958589 (kG*kT*kA*dA*dA*dG*dG*dA*dA*dG*dA*dT*d[5mC]*kT*k[5mC]*k[5mC]; antisense) [Compound 958589]
YAP1 (% UTC) [5]: 4 % UTC

958507 (kG*kA*kG*d[5mC]*dA*dG*dA*dT*dA*dA*dT*d[5mC]*dG*kA*kG*kA; antisense) [Compound 958507]
YAP1 (% UTC) [1]: 6 % UTC

958552 (kT*kA*kT*dT*dA*d[5mC]*dT*d[5mC]*d[5mC]*dT*dG*dT*dA*kG*kA*k[5mC]; antisense) [Compound 958552]
YAP1 (% UTC) [1]: 16 % UTC

958791 (antisense k[5mC]*kA*kT*dA*dA*dG*dA*dA*dA*dA*dG*dA*d[5mC]*kG*kA*k[5mC]) [Compound 958791]
YAP1 (% UTC) [4]: 123 % UTC

1075796 (kA*kG*kT*dA*dA*dT*dT*dA*dT*dA*dT*dA*d[5mC]*k[5mC]*k[5mC]*kA; antisense) [compound 1075796]
YAP1 (% UTC) [11]: 64 % UTC

958467 (antisense kG*kG*kT*dG*dG*d[5mC]*dA*dG*d[5mC]*d[5mC]*dA*dA*dA*kA*k[5mC]*kA) [Compound 958467]
YAP1 (% UTC) [1]: 32 % UTC

958660 (k[5mC]*k[5mC]*k[5mC]*dA*d[5mC]*dT*dG*dG*dG*dT*dT*dT*dG*kT*k[5mC]*k[5mC]; antisense) [Compound 958660]
YAP1 (% UTC) [3]: 106 % UTC

958478 (antisense kG*kG*kA*dA*dA*dT*dT*dT*d[5mC]*d[5mC]*dG*dG*dT*kG*k[5mC]*kA) [Compound 958478]
YAP1 (% UTC) [9]: 14 % UTC

958371 (antisense kA*k[5mC]*k[5mC]*dA*dA*d[5mC]*dT*dA*dT*dT*dA*d[5mC]*dT*kT*k[5mC]*kA) [Compound 958371]
YAP1 (% UTC) [2]: 2 % UTC

958534 (kT*kT*k[5mC]*dA*dG*d[5mC]*dA*dT*dA*dG*dA*dA*dG*kT*kA*kG; antisense) [Compound 958534]
YAP1 (% UTC) [5]: 3 % UTC

958741 (antisense kG*kT*kT*dA*d[5mC]*dT*dG*d[5mC]*dA*dA*d[5mC]*dT*dG*k[5mC]*k[5mC]*k[5mC]) [Compound 958741]
YAP1 (% UTC) [4]: 14 % UTC

1074892 (k[5mC]*kT*kG*dA*dA*dG*dT*dT*dT*dA*dG*d[5mC]*d[5mC]*kT*kG*kA; antisense) [compound 1074892]
YAP1 (% UTC) [10]: 42 % UTC

958581 (k[5mC]*kT*kG*d[5mC]*dT*dG*dA*dT*dA*dT*dA*dT*dA*kA*kG*kA; antisense) [Compound 958581]
YAP1 (% UTC) [4]: 26 % UTC

1074324 (antisense kG*k[5mC]*kA*dG*dG*dG*d[5mC]*dT*dA*dA*d[5mC]*dT*d[5mC]*k[5mC]*kT*kG) [compound 1074324]
YAP1 (% UTC) [11]: 116 % UTC

958565 (kT*kT*kG*dA*dG*d[5mC]*dA*d[5mC]*dT*dG*dA*dA*dA*kG*kT*kA; antisense) [Compound 958565]
YAP1 (% UTC) [3]: 4 % UTC

958780 (antisense kT*k[5mC]*kA*dA*d[5mC]*dT*dA*d[5mC]*dT*dT*dT*dT*d[5mC]*kA*kG*k[5mC]) [Compound 958780]
YAP1 (% UTC) [3]: 24 % UTC

1076333 (antisense k[5mC]*kT*kA*dT*dA*dA*dG*dG*dA*dA*dT*dG*dG*k[5mC]*kA*kA) [compound 1076333]
YAP1 (% UTC) [6]: 97 % UTC

958587 (kG*kG*kT*dG*dA*d[5mC]*dT*dG*dA*dA*dA*d[5mC]*dT*k[5mC]*kT*kA; antisense) [Compound 958587]
YAP1 (% UTC) [1]: 2 % UTC

958766 (antisense kT*kA*kA*d[5mC]*dA*dT*dA*dT*dG*dT*d[5mC]*dT*dA*k[5mC]*kT*k[5mC]) [Compound 958766]
YAP1 (% UTC) [4]: 23 % UTC

1076341 (antisense kA*kT*kT*dA*dA*d[5mC]*dT*dA*d[5mC]*dA*dA*d[5mC]*dT*kG*kT*kG) [compound 1076341]
YAP1 (% UTC) [7]: 18 % UTC

958666 (kG*kA*kA*dA*dA*dG*dG*dG*d[5mC]*dA*dA*dT*d[5mC]*kA*kT*kA; antisense) [Compound 958666]
YAP1 (% UTC) [4]: 52 % UTC

958495 (kG*kG*kT*d[5mC]*dA*dT*dT*dA*dT*dG*dT*dG*dA*k[5mC]*kT*kA; antisense) [Compound 958495]
YAP1 (% UTC) [3]: 56 % UTC

— US11214803B2, “Modulators of YAP1 expression” (Ionis Pharmaceuticals, Inc., priority 2019, dated 2022)
